Results: PubChem BioAssay (NCI)
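The compound was tested at five concentrations on cells cultured in 96-well plates, with a 48-hour exposure period. At the TGI there is no net growth.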

Assays:
Assay in all cases: DTP human tumour cell line panel, 48 h
M14 melanoma = tested on: M14 melanoma
COLO 205 colon = tested on: COLO 205 colon
LOX IMVI melanoma = tested on: LOX IMVI melanoma
HT29 colon = tested on: HT29 colon
786-0 renal = tested on: 786-0 renal
NCI-H226 lung = tested on: NCI-H226 lung
SK-MEL-28 melanoma = tested on: SK-MEL-28 melanoma
HCT-116 colon = tested on: HCT-116 colon
SN12C renal = tested on: SN12C renal
OVCAR-3 ovarian = tested on: OVCAR-3 ovarian
SF-539 CNS = tested on: SF-539 CNS

| Compound | TGI (M14 melanoma) | TGI (COLO 205 colon) | TGI (LOX IMVI melanoma) | TGI (HT29 colon) | TGI (786-0 renal) | TGI (NCI-H226 lung) | TGI (SK-MEL-28 melanoma) | TGI (HCT-116 colon) | TGI (SN12C renal) | TGI (OVCAR-3 ovarian) | TGI (SF-539 CNS) |
| --- | --- | --- | --- | --- | --- | --- | --- | --- | --- | --- | --- |
| S=C1CC(c2ccc(Cl)cc2)Sc2ccccc2N1 (centres undefined) | > 100 µM | > 100 µM | > 100 µM | > 100 µM | > 100 µM | > 100 µM | > 100 µM | > 100 µM | > 100 µM | 68 µM |  |
| Cn1c(N/N=C/c2ccc(Cl)cc2)nc(-c2ccc(Cl)cc2)c(C#N)c1=O | 42 µM | > 100 µM | 57.6 µM | > 100 µM | 29.8 µM |  | > 100 µM | 26.3 µM | > 100 µM | 32.7 µM | 45 µM |
| O=C(c1ccco1)N(C(=S)N1CCN(c2ccccc2)CC1)c1ccccc1 | > 100 µM | > 100 µM | > 100 µM | > 100 µM | > 100 µM | > 100 µM | > 100 µM | > 100 µM | > 100 µM | > 100 µM | > 100 µM |
| COc1cc(C(C#N)NNC(=O)c2ccccc2O)ccc1O (centres undefined) | > 100 µM | > 100 µM | > 100 µM | > 100 µM | > 100 µM | 38 µM | > 100 µM | > 100 µM | > 100 µM | 48.5 µM | 8.73 µM |
| Cc1ccc2c3c1O[C@H]1c4nc5ccccc5cc4C[C@@]4(O)[C@@H](C2)N(CC2CC2)CC[C@]314 | 25.9 µM | 19.3 µM | 17 µM | 16.7 µM | 22.7 µM | 29.5 µM | > 100 µM | 17.2 µM | > 100 µM | 25.3 µM | 19.4 µM |
| C=C[C@H]1CN2CC[C@H]1C[C@@H]2[C@@H](O)c1ccnc2ccccc12 | > 100 µM | > 100 µM | > 100 µM | > 100 µM | > 100 µM | > 100 µM | > 100 µM | > 100 µM | > 100 µM | > 100 µM | > 100 µM |
| CN(C)c1ccc(/C=N/NC2=N/C(=C\c3ccco3)C(=O)N2)cc1 | > 100 µM | > 100 µM | > 100 µM | > 100 µM | > 100 µM | > 100 µM | > 100 µM | > 100 µM | > 100 µM | > 100 µM | > 100 µM |
| O=C1NC(N2CCOCC2)=N/C1=C\c1ccccc1O | > 100 µM | > 100 µM | > 100 µM | > 100 µM | > 100 µM | > 100 µM | > 100 µM | > 100 µM | > 100 µM | > 100 µM | > 100 µM |
| Cc1ccc2[nH]c(=O)c(-c3cnc(=O)[nH]n3)c(O)c2c1 | > 100 µM | > 100 µM | > 100 µM | > 100 µM | > 100 µM | > 100 µM | > 100 µM | > 100 µM | > 100 µM | > 100 µM | > 100 µM |
| CO[P@]1(=O)O[C@@H](c2ccccc2)[C@H](O)[C@]1(O)c1ccccc1 | > 100 µM | > 100 µM | > 100 µM | > 100 µM | > 100 µM | > 100 µM | > 100 µM | > 100 µM | > 100 µM | > 100 µM | > 100 µM |
| CC(=O)O[C@H]1/C(=C/c2ccc(N(C)C)cc2)C[C@H]2[C@@H]3CC=C4C[C@@H](N5CCCC5)CC[C@]4(C)[C@H]3CC[C@]12C | > 100 µM | > 100 µM | > 100 µM | > 100 µM | > 100 µM | > 100 µM | > 100 µM | > 100 µM | > 100 µM | > 100 µM | > 100 µM |
| c1ccc2c(c1)SC1Sc3ccccc3[S+]21 (centres undefined) | 87.7 µM | 30.1 µM | 45.6 µM | > 85.3 µM | > 62.4 µM | 96.9 µM | 41.4 µM | > 57 µM | 33.6 µM | 46 µM | 54.9 µM |
| C/C(=N/O)c1cccc(Nc2nc3ccccc3c3[nH]c4ccccc4c23)c1 | 6.3 µM | 7.1 µM | 6.06 µM | 6.51 µM | 6.96 µM | 21 µM | 12.4 µM | 4.77 µM | 13.4 µM | 5.1 µM | 23.9 µM |
| CCN(CC)C(=O)CCCCCCCCC1CO1 (centres undefined) | > 100 µM | > 100 µM | > 100 µM | > 100 µM | > 100 µM | > 100 µM | > 100 µM | > 100 µM | > 100 µM | > 100 µM | > 100 µM |
| c1ccc(N=NNNc2ccc(-c3nc4ccccc4[nH]3)cc2)cc1 | > 100 µM | > 100 µM | > 100 µM | 94.7 µM | > 100 µM | > 100 µM | > 100 µM | > 100 µM | 98.1 µM | 38.1 µM | > 100 µM |
| O=C(CSC1=NCCN1)c1ccccc1 | > 100 µM | > 100 µM | > 100 µM | > 100 µM | > 100 µM | > 100 µM | > 100 µM | > 100 µM | > 100 µM | > 100 µM | > 100 µM |
